Consider two molecules from patent US20250228847A1, “COMBINATION THERAPY FOR TREATING CANCER” (AstraZeneca AB, priority 2022, published 2025).

Assay [1] concerns LnCAP cells. Nature of the assay: Cell proliferation / viability assay (Sytox Green, AC50), 7 days treatment. The conditions noted are these: Homo sapiens, LnCAP cell line (mHSPC, AR+ T877A), single agent. The class given is cell-based. Here is the method: (§1) The following cell lines were originally obtained from ATCC:
(§2) Cell line identification was validated using the CellCheck assay (IDEXX Bioanalytics, Westbrook, ME, USA). All cell lines were validated free of virus Mycoplasma contamination using the MycoSEQ assay (Thermo Fisher Scientific, Waltham, MA, USA) or STAT-Myco assay (IDEXX Bioanalytics). All cell lines were grown RPMI-1640 growth media (Corning 17-105-CV) supplemented with 10% fetal bovine serum (FBS) or, when indicated, 10% charcoal stripped FBS (ThermoFisher Scientific, 12676029) and 2 mM glutamine.
(§3) Cells in 384-well or 96-well plates were dosed using an Echo 555 (LabCyte, San Jose, CA, USA) or using the HP D300e Digital Dispenser (HP Life Science Dispensing), respectively. Live cell count pre- and post-treatment (7 days after treatment) was determined using CellTiter-Glo as per manufacturer's instructions (Promega, Madison, WI, USA; G7570).
(§4) Cell viability was determined with the Sytox Green assay as described in Davies 2012 and the AC50 calculated. The HSA (Highest Single Agent) Synergy Score was calculated according to Bernenbaum 1989.

The test system of assay [2] is C4-2 cells. Described as above. The class given is cell-based. The conditions noted are these: C4-2 cell line (mCRPC, AR+, ARV7), single agent. The protocol: as §1, §2, §3, §4

Some results are limits rather than exact numbers.

In the case of `CCc1cc2ncc(CN3CCN(c4ccc(C(=O)NC)nc4)CC3)cc2[nH]c1=O` [AZD5305, 5-{4-[(7-ethyl-6-oxo-5,6-dihydro-1,5-naphthyridin-3-yl)methyl]piperazin-1-yl}-N-methylpyridine-2-carboxamide], the AC50 in assay [1] and in assay [2] was over 1 µM in each case.
On to `C[C@]12CC[C@H](O)CC1=CC[C@@H]1[C@@H]2CC[C@]2(C)C(c3cccnc3)=CC[C@@H]12` [Abiraterone, abiraterone], for which the figures for the AC50 in assay [1] and in assay [2] were 4.94 µM and 2.81 µM, respectively.

By AC50 is commonly meant the concentration at which the activity in the assay is half-maximal.
